Among the data in patent US6982348B2, “Aminoethanol derivatives” (Takeda Pharmaceutical Company Limited, priority 2001, dated 2006) are IC50 and melting point values, retold here.

Data set [1] deals with T1, human CETP (Homo sapiens, UniProt P11597).
T1 sequence (P11597 18-493): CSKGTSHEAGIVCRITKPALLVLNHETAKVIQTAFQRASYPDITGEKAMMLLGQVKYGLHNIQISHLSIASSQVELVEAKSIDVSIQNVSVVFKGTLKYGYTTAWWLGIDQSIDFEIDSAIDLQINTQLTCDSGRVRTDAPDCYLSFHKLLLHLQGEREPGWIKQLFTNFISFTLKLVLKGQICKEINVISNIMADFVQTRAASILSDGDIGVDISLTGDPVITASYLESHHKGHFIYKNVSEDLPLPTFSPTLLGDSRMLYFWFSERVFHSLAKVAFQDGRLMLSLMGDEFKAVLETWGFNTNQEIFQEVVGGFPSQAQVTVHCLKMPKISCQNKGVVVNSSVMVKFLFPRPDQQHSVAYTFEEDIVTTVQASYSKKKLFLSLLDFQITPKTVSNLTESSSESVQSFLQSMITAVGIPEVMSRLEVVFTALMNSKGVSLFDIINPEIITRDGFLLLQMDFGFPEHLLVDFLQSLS
In words: Assay of cholesteryl ester transfer protein inhibitory activity, standard measurement system. Format: biochemical. To be noted: BODIPY-CE-ME donor, VLDL-LDL acceptor, reaction at 37° C. for 30 min. The method, then: (§1) Assay of Cholesteryl Ester Transfer Protein Inhibitory Activity
(§2) Fresh rabbit serum was adjusted with KBr to the density of (1.063 g/ml), and the fractions (VLDL-LDL, density<1.063 g/ml) floated by ultra-centrifugation operation (SW41—Ti, 40,000 rpm, 18 hrs., 4° C., Beckman model L8-55) were collected, subjected to dialysis against 0.15 M NaCl-10 mM Tris-HCl, pH 7.4 (TBS), sterilized by filtration through a filter and preserved at 4° C.
(§3) A solution of BODIPY-CE (0.6 mg) in chloroform was added to egg PC (phosphatidylcholine) ([…]) and triolein (2 mg), and after dissolution, the lipid was air dried under a nitrogen gas reflux and the solvent was removed under high vacuum. To this lipid was added an apo HDL solution (7.5 ml) obtained by defatting human HDL (1.063<d<1.21) with chloroform-methanol (2:1, v/v), dissolving in 6 M urea-containing TBS and dialyzing against TBS, and the mixture was subjected to sonication (BRANSON SONIFIRE CELL DISRUPTOR 200, dial 6, 5 min×4) to give BOBIPY-CE-ME. After centrifugation (CENTRIPREP 10), it was sterilized by filtration through a filter and preserved at 4° C.
The test compound (20% DMSO solution, 5 μl), TS (75 μl), acceptor lipoprotein (VLDL-LDL, 20 μl) and partially purified human CETP (25 μl) were mixed and incubated at 37° C. for 30 min. BODIPY-CE-ME (25 μl) was added (total 150 μl) and a transfer reaction was started. After reaction at 37° C. for 30 min., fluorescence intensity was measured at Ex. 490 nm/Em. 530 nm. The CETP inhibitory activity (% inhibition) was calculated by the following formula. [formula] 4) 50% Human Plasma-Containing Measurement System
(§4) The IC50 value was determined as a concentration showing 50% inhibition by plotting the logarithm of the concentration of test compound and % inhibition.

Data set [2] concerns the target T1, human CETP. In words: Assay of cholesteryl ester transfer protein inhibitory activity, 50% human plasma-containing measurement system. The class given is biochemical. The conditions noted are these: BODIPY-CE-ME donor, VLDL-LDL acceptor, reaction at 37° C. for 60 min. The method, then:
as §1, §2, §3
The test compound (20% DMSO solution, 5 μl), human plasma (75 μl), acceptor lipoprotein (VLDL-LDL, 20 μl) and partially purified human CETP (25 μl) were mixed and incubated at 37° C. for 30 min. BODIPY-CE-ME (25 μl) was added (total 150 μl) and a transfer reaction was started. After reaction at 37° C. for 60 min., fluorescence intensity was measured at Ex. 490 nm/Em. 530 nm. The CETP inhibitory activity (% inhibition) was calculated by the following formula. [formula]
as §4

On to `O=C(N[C@H](Cc1cccc(OC(F)(F)C(F)F)c1)[C@@H](O)c1ccc(F)cc1)c1cccc2c1CCCCC2` (racemic) [Example 124, N-[(1RS,2SR)-2-(4-fluorophenyl)-2-hydroxy-1-[3-(1,1,2,2-tetrafluoroethoxy)benzyl]ethyl]-6,7,8,9-tetrahydro-5H-benzo[a]cycloheptene-1-carboxamide], for which the melting point fell in the range of 194 to 195 °C. In data set [1], this molecule showed an IC50 of 0.046 µM. Also, in data set [2], the IC50 was found to be 2.4 µM.
`O=C(N[C@H](Cc1cccc(OC(F)(F)C(F)F)c1)[C@@H](O)c1ccc(F)cc1)c1cccc2c1C=CCCC2` (racemic) [Example 122, N-[(1RS,2SR)-2-(4-fluorophenyl)-2-hydroxy-1-[3-(1,1,2,2-tetrafluoroethoxy)benzyl]ethyl]-6,7-dihydro-5H-benzo[a]cycloheptene-1-carboxamide] returned a melting point of 176 to 177 °C. Also, 0.015 µM corresponded to half-maximal inhibition in data set [1] (IC50). The IC50 in data set [2] came to 0.49 µM.
Take `O=C(N[C@H](Cc1cccc(OC(F)(F)C(F)F)c1)[C@@H](O)c1ccc(Cl)cc1)c1cccc2c1C=CCCC2` (racemic) [Example 216, N-[(1RS,2SR)-2-(4-chlorophenyl)-2-hydroxy-1-[3-(1,1,2,2-tetrafluoroethoxy)benzyl]ethyl]-6,7-dihydro-5H-benzo[a]cycloheptene-1-carboxamide]: the melting point lay in the range of 182 to 183 °C. Besides, the midpoint of inhibition in data set [1], the IC50, lay at 0.04 µM. The molecule also showed an IC50 in data set [2] of 0.7 µM.
